Data published in patent US20260125428A1, “SYNTHETIC TRIPLEX PEPTIDE NUCLEIC ACID-BASED INHIBITORS FOR CANCER THERAPY” (University of Connecticut, priority 2022, published 2026).

Experiments:
U2932 cells = assay: Viability of U2932 cells, combination of PNAs with HDAC inhibitors and other drugs
Description: FIGS. 9A-D show cell viability after treatment with indicated PNAs. (9A) The viability of U2932 cells after treatment with γPNA1-NLS (8 μM), romidepsin (10 nM) and combination of γPNA1-NLS with romidepsin over 96 hours. (9B) The viability of U2932 cells after treatment with γPNA2-NLS (8 μM), romidepsin (10 nM) and combination of γPNA2-NLS with romidepsin over 96 hours. (9C) Fold change in C-Myc levels after combination of γPNA1-NLS and γPNA2-NLS with romidepsin in comparison to only romidepsin treatment. (9D) Fold change in BCL2 levels after combination of γPNA1-NLS and γPNA2-NLS with romidepsin in comparison to only romidepsin treatment.
FIGS. 10A-F show the viability of U2932 cells after indicated treatment. (10A) Viability of U2932 cells after treatment with γPNA2-NLS […], vorinostat (2.5 μM) and combination of γPNA2-NLS with vorinostat over 96 hours. (10B) The viability of U2932 cells after treatment with γPNA2-NLS (8 μM), valproic acid (2 mM) and combination of γPNA2-NLS with valproic acid over 96 hours. […] (10E) The viability of U2932 cells after treatment with CHOP (cyclophosphamide, vincristine, doxorubicin, prednisone) and combination of γPNA2-NLS with CHOP at different doses.
Cell viability: U2932 and Raji cells were seeded in 96 well plates at 20,000 cells/well. PNAs were added to the media at different concentrations (1, 2, 4, and 8 μM). […] The cell viability was then measured via trypan blue staining on day 1, 2, and 4.

C-Myc oncogene [1] = assay: Gene expression (RT-PCR) of C-Myc and downstream targets in U2932 cells; format: cell-based, human; conditions: RT-PCR, 24 h, 8 μM
Description: (§1) FIGS. 4A-F show effect of cellular uptake of indicated PNAs. (4A) Expression levels of C-Myc oncogene in U2932 (DLBCL), Raji and Daudi cells (Burkitt's lymphoma) in comparison to the peripheral blood mononuclear cells (PBMC). (4B) Cell viability of U2932 cells after 24 h treatment with indicated PNAs at different doses. (4C) Cell viability of Raji cells after 24 h treatment with indicated PNAs at different doses. (4D) Gene expression levels of C-Myc oncogene and its downstream targets including MCL1 and EZH2 in U2932 cells after 24 h of treatment with γPNA1-NLS, γPNA2-NLS, and ScrγPNA4-NLS at 8 μM. (4E) Gene expression levels of C-Myc oncogene and its downstream targets including BCL2 and EZH2 in Raji cells after 24 h of treatment with γPNA1-NLS, γPNA2-NLS, and ScrγPNA4-NLS at 8 μM. (4F) Gene expression levels of C-Myc in U2932 cells after 24 h treatment with γPNA2-NLS and ScrγPNA4-NLS at indicated doses.
(§2) Gene expression: The levels of mRNA were measured in different cell lines using real time-polymerase chain reaction (RT-PCR). Both untreated (PBMC, U2932, Raji, Daudi) and PNA treated lymphoma cells were collected at the end of treatment. Total RNA was extracted using Qiagen RNeasy® kit (USA) and concentration was measured by Nanodrop™. cDNA was synthesized using high capacity cDNA reverse transcription kit (Applied Biosystem, USA) following the recommended cycling conditions. Taqman® gene expression assay for C-Myc, EZH2, BCL2, MCL1 and GAPDH were used to amplify the respective mRNAs using the specified cycling conditions in the CFX Real-Time PCR detection system. GAPDH was used as the reference gene and fold change in mRNA expression was obtained by normalizing against the untreated cells or cells treated with HDAC inhibitors.

C-Myc oncogene [2] = assay: Gene expression (RT-PCR) of C-Myc and downstream targets in Raji cells; format: cell-based, human; conditions: 24 h, 8 μM
Description: as §1, §2

C-Myc oncogene [3] = assay: Gene expression (RT-PCR) in U2932 cells after combination treatment; format: cell-based, human
Description: as §2

U2932 derived xenografts = assay: Tumor growth and survival study in U2932 derived xenograft mice; format: in vivo; conditions: 5 mg/kg systemic on day 1, 4, 7, and 10
Description: FIGS. 7A-C show survival data of mice after systemic administration of indicated PNAs. (7A) Graph representing the tumor volume of U2932 xenografts after systemic treatment with indicated PNAs (n≥4 mice per group). PNAs were administered systemically on day 1, 4, 7, and 10 (n≥4 mice per group). (7B) The survival of U2932 derived xenograft mice after treatment with γPNA2-NLS, γPNA3, and ScrγPNA4-NLS at 5 mg/kg dose in comparison to the control (saline) mice. (7C) Complete blood count analysis of mice from different groups at the end of the study. RBC: red blood cells; WBC: white blood cells; HGB: hemoglobin; PLT: platelets; HCT: hematocrit; MCH: […]. (D) Blood chemistry analysis of mice from different groups at the end of the study. ALT: alanine transaminase; AST: aspartate transaminase; BUN: blood urea nitrogen; LDH: Lactate dehydrogenase. Results are presented as mean±SEM (n≥4).
In vivo studies in xenograft mice model: U2932 derived xenografts were generated by implanting 10 million cells subcutaneously on the lower right flank of the female NSG mice (NOD.Cg-Prkdc^scidIl2rg^tm1Wj1/SzJ, #005557, Jackson Laboratories, USA) of 5-6 weeks. The mice were maintained in the animal care facility at the University of Connecticut following the required Institutional Animal Care and Use Committee guidelines (IACUC). Mice developed palpable tumors after 3-4 weeks of implantation. Tumor dimensions including length (l), breadth (b), and height (h) were measured using a caliper and volume was calculated using the formula for ellipsoid (0.5236×lbh).
Survival study: Mice bearing tumors about 100-150 mm^3 were divided into 4 groups. Mice were treated with either γPNA2-NLS, γPNA3, Scr-γPNA4-NLS, or saline. PNAs were administered at 5 mg/kg dose on day 1, 4, 7, and 10. The change in tumor volume was measured every day. Mice were euthanized when the tumor volume reached 2000 mm^3. Blood was collected via cardiac punter in 1.5 ml tubes containing 0.5 M EDTA. Organs including tumor, liver, kidney, spleen, heart and lung were collected. Tumor fraction and all organs were kept in 10% formalin and submitted for histology. The complete blood count analysis was performed on the collected blood samples using Sysmex CBC analyzer. Plasma was separated from the blood samples and submitted to Antech diagnostic for blood chemistry analysis to quantify the levels of alanine transaminase, lactate dehydrogenase, aspartate transaminase and blood urea nitrogen.

Molecule: C/C=C1\NC(=O)[C@H]2CSSCC/C=C/[C@H](CC(=O)N[C@H](C(C)C)C(=O)N2)OC(=O)[C@H](C(C)C)NC1=O [Romidepsin, reference compound]
- cytotoxicity at 0.01 µM (U2932 cells; Homo sapiens, U2932, 96 h, read-out: decrease in viability, alone): 60%

Molecule: JJJJTTJJ-OOO-CCTTCCCCACCCTCCCCACCCTC-K-OOO-VKRKKKP (gamma PNA tail clamp; linkers; NLS peptide; misc_feature 1 JJJJTTJJ-linker- is covalently linked to the backbone, wherein J is pseudoisocytosine and the linker is 11-Amino-3,6,9-Trioxaundecanoic Acid (DCHA), represented as -OOO-; misc_feature 23 -K-linker-SEQ ID NO: 5 is covalently linked to the backbone, wherein the linker is 11-Amino-3,6,9-Trioxaundecanoic Acid (DCHA), represented as -OOO-; modified_base 1..23 OTHER; peptide nucleic acid) [γPNA1-NLS]
- change in levels of C-Myc (in words) (C-Myc oncogene [1]): did not observe any change in levels of C-Myc
- levels of downstream targets MCL1 and EZH2 (C-Myc oncogene [1]): no change in their levels
- change in levels of C-Myc (in words) (C-Myc oncogene [2]): did not observe any change in levels of C-Myc
- levels of downstream targets BCL2 and EZH2 (C-Myc oncogene [2]): no change in their levels
- combination effect with romidepsin on viability (in words) (U2932 cells; U2932 cells, romidepsin 10 nM, PNA 8 uM): synergistic activity
- decrease in U2932 cell viability, combination with romidepsin (U2932 cells; romidepsin 10 nM pretreatment 24 h, PNA 8 uM, day 4): approximately 80%
- BCL-2 levels, combination with romidepsin in comparison to only romidepsin (C-Myc oncogene [3]; day 4): reduced levels
- decrease in C-Myc levels, combination with romidepsin compared with only romidepsin (C-Myc oncogene [3]; day 4, PNA 8 uM, romidepsin 10 nM): approximately 50%

Molecule: X3TCCCTCCCTCCGTTCTTTTTCCCX4 (JJJTJJJT linker N-term; C-terminal lysine; gammaPNA; misc_feature 1 JJJTJJJT-linker- is covalently linked to the backbone, wherein J is pseudoisocytosine and the linker is 11-Amino-3,6,9-Trioxaundecanoic Acid (DCHA), represented as -OOO-; misc_feature 23 K is covalently linked to the backbone; modified_base 1..23 OTHER; peptide nucleic acid) [γPNA3, site 2 gamma tail clamp PNA without NLS]
- tumor growth in comparison to the control groups (U2932 derived xenografts): significantly reduced tumor growth
- survival of the mice (U2932 derived xenografts; saline 21 days): 23 days
